Data as given in patent US11000581B2, “Engineering gut commensal bacteria to express heterologous proteins in their outer membrane vesicles (OMVs) for delivery to the GI-tract” (QUADRAM INSTITUTE BIOSCIENCE, priority 2016, dated 2021).
Values after ≈ are worked out from the molar mass of the structure shown. Like-named read-outs stand apart in the source and are kept apart here.

What was measured:
B. thetaiotaomicron = experiment: Minimum inhibitory concentration of ampicillin for variant strains with or without mannan; format: cell-based; conditions: Bacteroides thetaiotaomicron, read-out: minimum inhibitory concentration (MIC) of ampicillin
Text: Since optimization of this novel gene expression system was based upon the use of a heterologous reporter gene, the system was validated by determining if it can be used to study B. thetaiotaomicron genes. For this purpose, the complementation of a deletion mutant of BtcepA (Stentz et al., 2015), a cephalosporinase gene involved in the resistance of bacterial cells to β-lactam antibiotics, was undertaken. The primer pair Lactamase_F and Lactamase_EcoRI_R was used to amplify an 885-bp region from B. thetaiotaomicron VPI-5482 genomic DNA encoding BtcepA. […] The β-lactamase activity was measured after 2 h of induction with increasing concentrations of mannan (Table 4). […] Periplasmic proteins were prepared as described by Stentz et al. (Stentz et al., 2015). β-lactamase activity was assessed spectrophotometrically by hydrolysis of nitrocefin according to the manufacturer's instructions (Calbiochem). […] The basal level measured for the low expression system was negligible since it represented only 2.7% of the activity measured for the wild-type control strain. To establish how these measured activities translate into resistance to β-lactam antibiotics the minimum inhibitory concentration (MIC) of the β-lactam antibiotic ampicillin was determined for each variant strain grown in the presence or absence of mannan.

GH361 [1] = experiment: MIC of ceftriaxone for GH361; format: cell-based, B. thetaiotaomicron; conditions: Bacteroides thetaiotaomicron
Experimental: “α-mannan is a fungal cell wall glycan that contains α-mannosidic linkages similar to those found in the core regions of N-linked glycans present on secreted mucus and epithelial surfaces” (Martens et al., 2011). However, expression levels of the PUL genes involved in mannan utilization in mice fed a diet lacking exogenous α-mannan were only partial when compared to other PULs showing high activity in vivo (Martens et al., 2008). The effectiveness of the mannan induced system was tested in vivo in seven-week-old male C57BL/6J WT mice with established B. thetaiotaomicron within the intestine, housed in a conventional animal facility after treating for 3 days with 1 mg/ml ampicillin and 1 mg/ml neomycin administered via drinking water. To achieve this, the strain GH361 containing the BtCepA gene controlled by the inducible low expression system (Table 1) was administered by oral gavage (1×10^8 colony-forming units (CFU) in 100 μl of phosphate buffered saline) to two groups of 4 mice. […] The MICs of ceftriaxone determined for GH361 were 8 mg/L when cells were grown in the absence of mannan and 64 mg/L when mannan was added to the growth medium. […]

GH361 [2] = experiment: Mannan-induced BtCepA expression in the mouse gut (ceftriaxone challenge, fecal CFU); format: in vivo, mice
Text: FIG. 4. In vivo induction of ceftriaxone resistance using exogenous α-mannan. Crosses indicate times of i.p. injections. GA: Group A of mice received mannan in their drinking water. GB: Group B of mice which were given access to regular drinking water. CRO: ceftriaxome.
“α-mannan is a fungal cell wall glycan that contains α-mannosidic linkages similar to those found in the core regions of N-linked glycans present on secreted mucus and epithelial surfaces” (Martens et al., 2011). However, expression levels of the PUL genes involved in mannan utilization in mice fed a diet lacking exogenous α-mannan were only partial when compared to other PULs showing high activity in vivo (Martens et al., 2008). The effectiveness of the mannan induced system was tested in vivo in seven-week-old male C57BL/6J WT mice with established B. thetaiotaomicron within the intestine, housed in a conventional animal facility after treating for 3 days with 1 mg/ml ampicillin and 1 mg/ml neomycin administered via drinking water. To achieve this, the strain GH361 containing the BtCepA gene controlled by the inducible low expression system (Table 1) was administered by oral gavage (1×10^8 colony-forming units (CFU) in 100 μl of phosphate buffered saline) to two groups of 4 mice. One of the groups (Group A) were given drinking water with containing 2.5% (v/v) mannan-oligosaccharide supplement (ActiveMOS, Orffa, Werkendam, The Netherlands) prepared treating the powder (10% w/v) with 1% NaOH at 100° C. for 1 h, cooling and neutralizing to pH7 with dilute HCl solution (Huang et al., 2010). […] Both groups of mice were challenged every other day via i.p. injection with ceftriaxone (0.4 mg/mice), a third-generation cephalosporin that is excreted via the biliary route and affects the colonic microbiota (Arvidsson et al., 1982). The MICs of ceftriaxone determined for GH361 were 8 mg/L when cells were grown in the absence of mannan and 64 mg/L when mannan was added to the growth medium. […]

Row | SMILES | MIC (B. thetaiotaomicron) | MIC (GH361 [1]; read-out: MIC of ceftriaxone, GH361, mannan added to the growth medium) | MIC (GH361 [1]; read-out: MIC of ceftriaxone, GH361 grown in the absence of mannan) | effect on GH361 population levels (GH361 [2]; ceftriaxone increased to 0.8 mg, both groups) | effect on levels of GH361 (CFU in fecal samples) (GH361 [2]; group A given mannan in drinking water, three successive i.p. doses 0.4 mg/mice) | decrease of levels of GH361 (CFU in fecal samples) (GH361 [2]; group B not given mannan, three successive i.p. doses 0.4 mg/mice)
1 | CC1(C)S[C@@H]2[C@H](NC(=O)[C@H](N)c3ccccc3)C(=O)N2[C@H]1C(=O)O [ampicillin] | 4 to 2050 µg/mL (≈ 11.4 to 5860 µM) | – | – | – | – | –
2 | CO/N=C(\C(=O)N[C@@H]1C(=O)N2C(C(=O)O)=C(CSc3nc(=O)c(=O)[nH]n3C)CS[C@H]12)c1csc(N)n1 [ceftriaxone] | – | 64 µg/mL | 8 µg/mL | decreased significantly | no effect | approximately 15 fold
